From PMC7088272 (Biotechnology Letters, 2016) come the findings set out here.

Assay [1] has as its target T1, ZIKV NS2B-NS3^pro (Zika virus, UniProt A0A024B7W1). Kind of assay: FRET-based inhibition assay of ZIKV NS2B-NS3pro protease. Type of assay: biochemical. The following applies: for inhibition at 100 µM: pH 7, 100 µM inhibitor.
In assay [2] the target is T1, ZIKV NS2B-NS3^pro. Kind of assay: Inhibitor kinetic study. Type of assay: biochemical.
Where [3] appears, read: 26 μM FRET substrate, 8.7 μg enzyme, 50 mM Tris/HCl pH 7.0, 25 °C, 11 min.

T1 sequence (A0A024B7W1 1421-1469): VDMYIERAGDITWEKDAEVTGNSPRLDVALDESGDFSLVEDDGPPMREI
T1 sequence (A0A024B7W1 1503-1688): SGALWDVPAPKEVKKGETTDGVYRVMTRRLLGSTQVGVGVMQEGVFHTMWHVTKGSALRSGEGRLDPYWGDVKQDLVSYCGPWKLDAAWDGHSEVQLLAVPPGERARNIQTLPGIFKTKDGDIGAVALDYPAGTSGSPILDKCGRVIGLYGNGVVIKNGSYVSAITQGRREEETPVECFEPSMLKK

In the case of `C[C@@H]1O[C@@H](O[C@H]2[C@H](Oc3cc(O)c4c(c3)O[C@H](c3ccc(O)cc3)CC4=O)O[C@H](CO)[C@@H](O)[C@@H]2O)[C@H](O)[C@H](O)[C@H]1O` [Naringin], the “inhibitory activity against ZIKV NS2B-NS3^pro (in words)” value against ZIKV NS2B-NS3^pro [1] (100 µM inhibitor) is “weak inhibitory activities”. `O=c1c(O[C@@H]2O[C@H](CO)[C@@H](O)[C@H](O)[C@H]2O)c(-c2ccc(O)cc2)oc2cc(O)cc(O)c12` [Astragalin]: on ZIKV NS2B-NS3^pro [1], 112 ± 5.5 µM corresponded to half-maximal inhibition (IC50). For the same compound, the inhibition (commonly the percentage by which the read-out fell short of the control) at 100 µM on ZIKV NS2B-NS3^pro [1] (setting [3]) is greater than 40%. In turn, `O=C(O[C@@H]1Cc2c(O)cc(O)cc2O[C@@H]1c1ccc(O)c(O)c1)c1cc(O)c(O)c(O)c1` [Epicatechin gallate] showed an inhibition at 100 µM against ZIKV NS2B-NS3^pro [1] (setting [3]) greater than 40%. For the compound `O=c1cc(-c2ccc(O)c(O)c2)oc2cc(O)cc(O)c12` [Luteolin], half-maximal inhibition on ZIKV NS2B-NS3^pro [1] (IC50) required 53 ± 1.3 µM. For the same compound, on ZIKV NS2B-NS3^pro [1] (setting [3]), the inhibition at 100 µM is greater than 40%. The “inhibition activity compared to chrysin” value at ZIKV NS2B-NS3^pro [1] (ratio of inhibition at 100 µM) came to 2.8 times. With `O=C(O[C@@H]1Cc2c(O)cc(O)cc2O[C@H]1c1cc(O)c(O)c(O)c1)c1cc(O)c(O)c(O)c1` [Gallocatechin gallate], at ZIKV NS2B-NS3^pro [1], the IC50 – broadly, the concentration at which inhibition is half-maximal – was 99 ± 1.8 µM. Further, the inhibition at 100 µM against ZIKV NS2B-NS3^pro [1] (setting [3]) was greater than 40%. For the compound `O=c1c(O)c(-c2cc(O)c(O)c(O)c2)oc2cc(O)cc(O)c12` [Myricetin], the “Inhibition (%)” value at ZIKV NS2B-NS3^pro [1] (100 µM inhibitor, 26 μM FRET substrate, 8.7 μg enzyme, 50 mM Tris/HCl pH 7.0, 25 °C, 11 min) is recorded as “more than 40%”. For the same compound, on ZIKV NS2B-NS3^pro [2], the affinity corresponds to a Ki of 8.9 ± 1.9 µM. The inhibition type result at ZIKV NS2B-NS3^pro [2] (Lineweaver–Burk and Dixon plots, inhibitor 0–50 µM, substrate 10–50 µM) is “mixed type”. The compound `C[C@@H]1O[C@@H](OC[C@H]2O[C@@H](Oc3c(-c4ccc(O)c(O)c4)oc4cc(O)cc(O)c4c3=O)[C@H](O)[C@@H](O)[C@@H]2O)[C@H](O)[C@H](O)[C@H]1O` [Rutin] came in with an inhibition at 100 µM on ZIKV NS2B-NS3^pro [1] (setting [3]) greater than 40%.
